Measured values: patent US20220313656A1, “NEW CLASS OF ANTIBIOTICS HAVING LOW MIC-VALUES TOWARDS DIFFERENT STRAINS OF BACTERIA” (priority 2019, published 2022)
Read-outs that look alike come from different tables or passages of the source.

Columns and labels:
Test in all cases: MIC, serial dilution method (CLSI)
[1] = tested on: Staphylococus pseudintermedius; type: cell-based, Staphylococcus pseudintermedius
Protocol: (§1) These inoculums were each in diluted 1:100 in Müller Hinton (MH) broth (Sigma, Copenhagen, Denmark). From the diluted inoculums 100 μl was transferred to each well in a 96-well plate and mixed with the compound to be MIC determined. The plate was incubated for 24 hours at 37° C. (without shaking). The MIC value was determined as the lowest concentration in which no bacterial growth could be visually detected. All MIC determinations were done in duplicates. […] Since all derivatives are new, no control strains (with reference MIC values) were available.

S. aureus USA300 = type: cell-based, Staphylococcus aureus
Protocol: as §1

S. aureus CC398 = type: cell-based, Staphylococcus aureus
Protocol: as §1

Bacillus cereus = type: cell-based
Protocol: as §1

Salmonella enteritidis = type: cell-based
Protocol: as §1

Listeria monocytogenes = type: cell-based
Protocol: as §1

Streptococcus equi = type: cell-based
Protocol: as §1

E. faecium = type: cell-based, Enterococcus faecium
Protocol: as §1

E. faecalis = type: cell-based, Enterococcus faecalis
Protocol: as §1

E. coli APEC O2 = type: cell-based, Escherichia coli
Protocol: as §1

[2] = Staphylococus pseudintermedius, MH broth, 24 hours at 37° C., set to 256 if growth at […]
[3] = S. aureus USA300, MH broth, 24 hours at 37° C., set to 256 if growth at […]
[4] = S. aureus CC398 (MRSA strain), MH broth, 24 hours at 37° C., set to 256 if growth at […]
[5] = MH broth, 24 hours at 37° C., set to 256 if growth at […]
[6] = Salmonella enteritidis, MH broth, 24 hours at 37° C., set to 256 if growth at […]
[7] = E. faecium, MH broth, 24 hours at 37° C., set to 256 if growth at […]
[8] = E. faecalis, MH broth, 24 hours at 37° C., set to 256 if growth at […]
[9] = E. coli APEC O2, MH broth, 24 hours at 37° C., set to 256 if growth at […]
[10] = Staphylococcus pseudintermedius, 24 h, read-out: MIC
[11] = Staphylococcus aureus, USA300, 24 h, read-out: MIC
[12] = Staphylococcus aureus, MRSA, 24 h, read-out: MIC
[13] = Salmonella enterica, ENTERITIDIS, 24 h, read-out: MIC
[14] = Enterococcus faecium, 24 h, read-out: MIC
[15] = Enterococcus faecalis, 24 h, read-out: MIC
[16] = Escherichia coli, APECO2, 24 h, read-out: MIC

Compound | MIC [1, 2] | MIC (S. aureus USA300; [3]) | MIC (S. aureus CC398; [4]) | MIC (Bacillus cereus; [5]) | MIC (Salmonella enteritidis; [6]) | MIC (Listeria monocytogenes; [5]) | MIC (Streptococcus equi; [5]) | MIC (E. faecium; [7]) | MIC (E. faecalis; [8]) | MIC (E. coli APEC O2; [9]) | MIC [1, 10] | MIC (S. aureus USA300; [11]) | MIC (S. aureus CC398; [12]) | MIC (Bacillus cereus; 24 h, read-out: MIC) | MIC (Salmonella enteritidis; [13]) | MIC (Listeria monocytogenes; 24 h, read-out: MIC) | MIC (Streptococcus equi; 24 h, read-out: MIC) | MIC (E. faecium; [14]) | MIC (E. faecalis; [15]) | MIC (E. coli APEC O2; [16])
CSc1ccc2c(c1)N(CCC1CCCC[N+]1(C)C)c1ccccc1S2.[I-] (stereo not drawn) [Compound S24, 1,1-dimethyl-2-(2-(2-(methylthio)-10H-phenothiazin-10-yl)ethyl)piperidin-1-ium iodide] |  |  |  |  |  |  |  |  |  |  | 8 µg/mL | 16 µg/mL | 16 µg/mL | 16 µg/mL | 128 µg/mL | 32 µg/mL | 8 µg/mL | 64 µg/mL | 128 µg/mL | 256 µg/mL
CCOC(=O)CC[N+](C)(C)CCCN1c2ccccc2Sc2ccc(Cl)cc21 [Chlorpromazine 3-Ethoxy-3-oxo-1-propyl] | 32 µg/mL | 64 µg/mL | 64 µg/mL | 128 µg/mL | 64 µg/mL | 64 µg/mL | 32 µg/mL | 32 µg/mL | 64 µg/mL | 128 µg/mL |  |  |  |  |  |  |  |  |  | 
CC(CN1c2ccccc2Sc2ccccc21)N(C)C.Cl (stereo not drawn) [Compound S12, N,N-dimethyl-1-(10H-phenothiazin-10-yl)propan-2-amine hydrochloride, reference compound] |  |  |  |  |  |  |  |  |  |  | 64 µg/mL | 128 µg/mL | 128 µg/mL | 256 µg/mL | 256 µg/mL | 128 µg/mL | 64 µg/mL | 256 µg/mL | 128 µg/mL | 128 µg/mL
CC(CN1c2ccccc2Sc2ccccc21)[N+](C)(C)C.[I-] (stereo not drawn) [Compound S13, N,N,N-trimethyl-1-(10H-phenothiazin-10-yl)propan-2-aminium iodide] |  |  |  |  |  |  |  |  |  |  | 64 µg/mL | 128 µg/mL | 128 µg/mL | 128 µg/mL | 128 µg/mL | 256 µg/mL | 32 µg/mL | 128 µg/mL | 256 µg/mL | 256 µg/mL
CSc1ccc2c(c1)N(CCC1CCCC[N+]1(C)C(C)C)c1ccccc1S2.[Br-] (stereo not drawn) [Compound S26, 1-isopropyl-1-methyl-2-(2-(2-(methylthio)-10H-phenothiazin-10-yl)ethyl)piperidin-1-ium bromide] |  |  |  |  |  |  |  |  |  |  | 8 µg/mL | 8 µg/mL | 8 µg/mL | 8 µg/mL | 128 µg/mL | 8 µg/mL | 8 µg/mL | 16 µg/mL | 32 µg/mL | 128 µg/mL

Continued, values first:

MIC [1, 2] | MIC (S. aureus USA300; [3]) | MIC (S. aureus CC398; [4]) | MIC (Bacillus cereus; [5]) | MIC (Salmonella enteritidis; [6]) | MIC (Listeria monocytogenes; [5]) | MIC (Streptococcus equi; [5]) | MIC (E. faecium; [7]) | MIC (E. faecalis; [8]) | MIC (E. coli APEC O2; [9]) | MIC [1, 10] | MIC (S. aureus USA300; [11]) | MIC (S. aureus CC398; [12]) | MIC (Bacillus cereus; 24 h, read-out: MIC) | MIC (Salmonella enteritidis; [13]) | MIC (Listeria monocytogenes; 24 h, read-out: MIC) | MIC (Streptococcus equi; 24 h, read-out: MIC) | MIC (E. faecium; [14]) | MIC (E. faecalis; [15]) | MIC (E. coli APEC O2; [16]) | Compound
16 µg/mL | 32 µg/mL | 32 µg/mL | 4 µg/mL | 128 µg/mL | 4 µg/mL | 8 µg/mL | 32 µg/mL | 32 µg/mL | 256 µg/mL |  |  |  |  |  |  |  |  |  |  | CCOC(=O)CC[N+]1(C)CCCCC1CCN1c2ccccc2Sc2ccc(SC)cc21 (stereo not drawn) [Thioridazine 3-Ethoxy-3-oxo-1-propyl]
 |  |  |  |  |  |  |  |  |  | 2 µg/mL | 4 µg/mL | 4 µg/mL | 8 µg/mL | 64 µg/mL | 8 µg/mL | 2 µg/mL | 16 µg/mL | 16 µg/mL | 64 µg/mL | CCCCC[N+](C)(C)CC/C=C1/c2ccccc2Sc2ccc(Cl)cc21.[Br-] [Compound S38, (Z)—N-(3-(2-chloro-9H-thioxanthen-9-ylidene)propyl)-N,N-dimethylpentan-1-aminium bromide]
 |  |  |  |  |  |  |  |  |  | 4 µg/mL | 4 µg/mL | 4 µg/mL | 8 µg/mL | 64 µg/mL | 8 µg/mL | 4 µg/mL | 16 µg/mL | 16 µg/mL | 64 µg/mL | CC(C)CC[N+](C)(C)CC/C=C1/c2ccccc2Sc2ccc(Cl)cc21.[Br-] [Compound S37, (Z)—N-(3-(2-chloro-9H-thioxanthen-9-ylidene)propyl)-N,N,3-trimethylbutan-1-aminium bromide]
 |  |  |  |  |  |  |  |  |  | 32 µg/mL | 32 µg/mL | 32 µg/mL | 64 µg/mL | 128 µg/mL | 32 µg/mL | 256 µg/mL | 32 µg/mL | 32 µg/mL | 64 µg/mL | CN(C)CC/C=C1/c2ccccc2Sc2ccc(Cl)cc21.Cl [Compound S34, (Z)-3-(2-chloro-9H-thioxanthen-9-ylidene)-N,N-dimethylpropan-1-amine hydrochloride, reference compound]
